Data from US20240208983A1, “1,2,4-TRIAZOLO[4,3-A]PYRIDINE DERIVATIVES AS NEGATIVE ALLOSTERIC MODULATORS OF METABOTROPIC GLUTAMATE RECEPTOR 2” (Vanderbilt University, priority 2021, published 2024).
pIC50: −log10 of the molar value. Like-named read-outs stand apart in the source and are kept apart here.

Experiments:
[1] = system: group II mGlu receptors; details: cited from earlier work
[2] = biological target: T1, human mGlu3 (Homo sapiens, UniProt Q14832); assay: mGlu3 GIRK cell-based thallium flux assay; details: HEK-293 co-expressing human mGlu3 and GIRK; EC80 glutamate
T1 construct: expressed in transfected cells; host or cells: HEK-293
T1 sequence (Q14832 23-879): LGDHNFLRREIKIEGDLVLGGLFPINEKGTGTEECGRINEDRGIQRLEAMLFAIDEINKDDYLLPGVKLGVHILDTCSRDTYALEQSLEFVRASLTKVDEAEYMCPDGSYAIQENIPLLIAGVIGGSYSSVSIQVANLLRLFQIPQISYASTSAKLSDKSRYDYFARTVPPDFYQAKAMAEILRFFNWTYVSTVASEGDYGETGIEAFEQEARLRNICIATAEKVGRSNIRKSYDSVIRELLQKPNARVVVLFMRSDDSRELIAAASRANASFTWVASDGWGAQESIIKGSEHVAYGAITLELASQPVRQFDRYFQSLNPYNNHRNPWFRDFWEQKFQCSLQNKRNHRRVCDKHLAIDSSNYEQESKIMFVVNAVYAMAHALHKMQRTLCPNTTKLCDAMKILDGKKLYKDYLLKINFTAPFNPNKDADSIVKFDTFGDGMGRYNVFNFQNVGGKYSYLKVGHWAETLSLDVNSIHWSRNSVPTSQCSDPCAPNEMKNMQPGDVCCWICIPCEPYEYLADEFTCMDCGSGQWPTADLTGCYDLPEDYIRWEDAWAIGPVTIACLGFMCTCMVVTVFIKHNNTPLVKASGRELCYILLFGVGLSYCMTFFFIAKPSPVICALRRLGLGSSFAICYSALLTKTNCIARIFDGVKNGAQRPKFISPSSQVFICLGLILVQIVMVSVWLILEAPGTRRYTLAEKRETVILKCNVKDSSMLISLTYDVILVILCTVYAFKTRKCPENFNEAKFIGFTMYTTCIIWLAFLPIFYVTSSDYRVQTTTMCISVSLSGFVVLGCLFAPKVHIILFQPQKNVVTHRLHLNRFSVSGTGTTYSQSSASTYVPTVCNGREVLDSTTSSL
Procedure: (§1) Human embryonic kidney (HEK-293) cell lines stably co-expressing human mGlu2 and G protein-coupled inwardly rectifying potassium (GIRK) channels, or human mGlu3 and GIRK, were used for in vitro evaluation of compound activity through thallium flux assays.
(§2) The day before the assay, cells from cell lines co-expressing human mGlu2 or mGlu3 and GIRK, as described above, were plated in black-walled, clear-bottomed, amine-coated 384-well plates in 20 μL of assay medium (DMEM containing 10% FBS, 1 M HEPES, 100 mM sodium pyruvate) at a density of 15,000 cells/well and stored at 37° C. in the presence of 5% CO2. On the day of the assay, medium was removed and replaced with assay buffer (Hanks balanced salt solution, 20 mM HEPES, 4.16 mM sodium bicarbonate, pH 7.2) containing 0.328 μM FluoZin-2 AM dye. The dye was initially made up as a 2.85 mM stock in DMSO and diluted 1:1 with 10% pluronic acid before adding to the buffer. Cells were then incubated for one hour at room temperature. After dye-loading, excess extracellular dye was removed by exchanging the dye solution with assay buffer resulting in 20 μL of buffer in each well. After a ten-minute rest period, cell plates were loaded into a Hamamatsu μCell kinetic imaging plate reader to monitor fluorescence using 470 nm excitation and 540 nm emission settings.
(§3) After collection of baseline fluorescence, 20 μL of compound solution prepared as a concentration response series in assay buffer was added. The concentration series was created from a 10 mM DMSO compound stock by performing a 1:3 serial dilution in DMSO followed by a 1:167 dilution of each DMSO solution in buffer. […] Multiple reference wells containing no compound received either no glutamate (for a baseline reference), EC80 glutamate, or ECmax glutamate (for normalization to maximum response). Signal was monitored an additional 2.5 minutes after the glutamate addition. Fluorescence was measured throughout the experiment at a frequency of 1 measurement per every 2 seconds before the glutamate addition and a frequency of 1 measurement per every 1 second after the glutamate addition. Each compound concentration series occurred one time in each plate, and replicates from two or three plates were used in each experimental run. Thallium solutions were handled and disposed of according to guidelines from the Vanderbilt University Chemical Safety department.
(§4) Data were normalized using a static ratio function (F/F0) by dividing every fluorescent measurement by the initial fluorescent value for the corresponding well. The increase in signal resulting from the glutamate/thallium addition of the second add was measured by determining the slope from 3 seconds to 13 seconds after the addition. The average of all baseline slopes (no compound, no glutamate) was determined and this value was subtracted from all other slope values. The average of all ECmax slopes was determined and this value was used to normalize the baseline-corrected slopes to a percent max value (% Emax). The % Emax values for each compound series were plotted versus the log of the concentration and fit to a 4-parameter logistical equation with no fixed parameters.
(§5) Potency is reported as the IC50 resulting from the curve fit.

[3] = biological target: T2, human mGlu2 (Homo sapiens, UniProt Q14416); assay: mGlu2 GIRK cell-based thallium flux assay; details: HEK-293 co-expressing human mGlu2 and GIRK; EC80 glutamate
T2 construct: expressed in transfected cells; host or cells: HEK-293
T2 sequence (Q14416 19-872): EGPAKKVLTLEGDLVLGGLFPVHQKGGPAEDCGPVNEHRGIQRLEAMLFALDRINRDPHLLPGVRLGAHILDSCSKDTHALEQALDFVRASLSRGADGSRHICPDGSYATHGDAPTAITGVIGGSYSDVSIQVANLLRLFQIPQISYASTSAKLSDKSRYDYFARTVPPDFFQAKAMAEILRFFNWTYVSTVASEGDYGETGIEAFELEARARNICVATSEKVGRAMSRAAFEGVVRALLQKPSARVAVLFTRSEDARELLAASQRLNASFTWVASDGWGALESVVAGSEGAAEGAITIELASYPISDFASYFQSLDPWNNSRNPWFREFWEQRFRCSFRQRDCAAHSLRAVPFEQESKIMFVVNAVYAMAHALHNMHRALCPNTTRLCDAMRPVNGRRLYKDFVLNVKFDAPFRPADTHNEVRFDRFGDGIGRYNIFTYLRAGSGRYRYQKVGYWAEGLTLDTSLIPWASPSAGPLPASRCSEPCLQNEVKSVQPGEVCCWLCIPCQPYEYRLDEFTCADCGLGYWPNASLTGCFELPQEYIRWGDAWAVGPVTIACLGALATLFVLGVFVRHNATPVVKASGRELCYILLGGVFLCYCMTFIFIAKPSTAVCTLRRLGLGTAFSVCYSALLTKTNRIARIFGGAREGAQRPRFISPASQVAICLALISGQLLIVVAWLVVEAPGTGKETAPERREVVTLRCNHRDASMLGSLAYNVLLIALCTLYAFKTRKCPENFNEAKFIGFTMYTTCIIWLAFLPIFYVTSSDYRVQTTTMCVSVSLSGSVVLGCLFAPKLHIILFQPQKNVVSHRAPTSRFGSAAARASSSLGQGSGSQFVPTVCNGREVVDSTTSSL
Procedure: as §1, §2, §3, §4, §5

[4] = system: normal animals; details: cited from earlier work
[5] = system: mice; details: treated mice; cited from earlier work
[6] = system: central mGlu2 and mGlu3 receptors; details: in vivo; cited from earlier work
[7] = system: Aβ-induced neurodegeneration; details: cited from earlier work
[8] = system: C57Bl6/J mice; details: cited from earlier work
[9] = system: normal animals; details: cited from earlier work; remark: listed apart in the source
[10] = system: Helpless (H) mice; details: cited from earlier work; for activity in the tail suspension test: Helpless (H) mice
[11] = in vivo; cited from earlier work
[12] = system: olfactory bulbectomized rats; details: repeated administration for 14 days; cited from earlier work
[13] = treatment for 7 days; cited from earlier work
[14] = system: social isolation-reared mice; details: cited from earlier work

CCCCCCCOC(=O)[C@@]1(F)[C@@H]2C[C@@H](OCc3ccc(Cl)c(Cl)c3)[C@@](N)(C(=O)O)[C@@H]21 [BCI-838]
duration of inhibition of group II mGlu receptors by brain concentration of active metabolite BCI-632 ([1]; once-daily oral dosing): 22 h | Dutch APP transgene-associated learning and memory impairment ([1]; three months of treatment): reversed | anxiolytic effects ([1]; three months of treatment): provided anxiolytic effects | levels of monomeric and oAβ peptides in the hippocampus and cortex ([1]; three months of treatment, two AD mouse models): decreased | hippocampal progenitor cell proliferation ([1]; wild-type and Alzheimer's diseased mice, 3 months): stimulated

Cn1ccc(COc2cc3n[nH]c(=O)n3cc2-c2ccc(F)cc2)n1 [Compound 1, 6-(4-fluorophenyl)-7-((1-methyl-1H-pyrazol-3-yl)methoxy)-[1,2,4]triazolo[4,3-a]pyridin-3(2H)-one]
Human mGlu3 GIRK IC50 [2]: Inactive | pIC50 [3]: 6.11

Cc1nc(COc2cc3n[nH]c(=O)n3cc2-c2ccc(F)cc2)cs1 [Compound 3, 6-(4-fluorophenyl)-7-((2-methylthiazol-4-yl)methoxy)-[1,2,4]triazolo[4,3-a]pyridin-3(2H)-one]
Human mGlu3 GIRK IC50 [2]: Inactive | pIC50 [3]: 6.98

Cc1csc(COc2cc3n[nH]c(=O)n3cc2-c2ccc(F)cc2)n1 [Compound 6, 6-(4-fluorophenyl)-7-((4-methylthiazol-2-yl)methoxy)-[1,2,4]triazolo[4,3-a]pyridin-3(2H)-one]
Human mGlu3 GIRK IC50 [2]: Inactive | pIC50 [3]: 6.77

COc1ccc(-c2cn3c(=O)[nH]nc3cc2OCc2ccn(C)n2)c(F)c1 [Compound 7, 6-(2-fluoro-4-methoxyphenyl)-7-((1-methyl-1H-pyrazol-3-yl)methoxy)-[1,2,4]triazolo[4,3-a]pyridin-3(2H)-one]
Human mGlu3 GIRK IC50 [2]: Inactive | pIC50 [3]: 7.05

COc1ccc(-c2cn3c(=O)[nH]nc3cc2OCc2csc(C)n2)c(F)c1 [Compound 8, 6-(2-fluoro-4-methoxyphenyl)-7-((2-methylthiazol-4-yl)methoxy)-[1,2,4]triazolo[4,3-a]pyridin-3(2H)-one]
Human mGlu3 GIRK IC50 [2]: Inactive | pIC50 [3]: 7.27

COc1ccc(-c2cn3c(=O)[nH]nc3cc2OCc2nccn2C)c(F)c1 [Compound 9, 6-(2-fluoro-4-methoxyphenyl)-7-((1-methyl-1H-imidazol-2-yl)methoxy)-[1,2,4]triazolo[4,3-a]pyridin-3(2H)-one]
Human mGlu3 GIRK IC50 [2]: Inactive | pIC50 [3]: 6.67

COc1ccc(-c2cn3c(=O)[nH]nc3cc2OCc2cc(C)n(C)n2)c(F)c1 [Compound 10, 7-((1,5-dimethyl-1H-pyrazol-3-yl)methoxy)-6-(2-fluoro-4-methoxyphenyl)-[1,2,4]triazolo[4,3-a]pyridin-3(2H)-one]
Human mGlu3 GIRK IC50 [2]: Inactive | pIC50 [3]: 6.92

COc1ccc(-c2cn3c(=O)[nH]nc3cc2OCc2ccn(C)n2)cc1 [Compound 11, 6-(4-methoxyphenyl)-7-((1-methyl-1H-pyrazol-3-yl)methoxy)-[1,2,4]triazolo[4,3-a]pyridin-3(2H)-one]
Human mGlu3 GIRK IC50 [2]: Inactive | pIC50 [3]: 7.07

N[C@](CC1c2ccccc2Oc2ccccc21)(C(=O)O)[C@H]1C[C@@H]1C(=O)O [LY341495]
Antidepressant-like effects in mouse TST [4]: Antidepressant-like effects | marble-burying behavior [5]: significantly reduce marble-burying behavior | hypolocomotor effect of mGlu2/3 agonist (LY379268) [6]: achieved the same result | amplification of Aβ-induced neurodegeneration by LY566332 [7]: prevented | immobility time in the FST [8]: dose-dependently reduced | Antidepressant-like effects in rat FST [9]: Antidepressant-like effects | activity in the tail suspension test [10]: active | antidepressant effect in helpless mice ([10]; acute administration): potent antidepressant effect

CCS(=O)(=O)N(Cc1cccnc1)c1cccc(-c2ccc(C#N)cc2)c1 [LY566332]
Aβ-induced neurodegeneration [7]: amplified

N[C@]1(C(=O)O)[C@H]2[C@@H](C[C@H]1OCc1ccc(Cl)c(Cl)c1)[C@]2(F)C(=O)O [MGS0039]
Antidepressant-like effects in mouse TST [4]: Antidepressant-like effects | marble-burying behavior [5]: reduced marble-burying behavior in a significant and dose dependent manner | spontaneous locomotor activity [5]: no significant change | freezing behavior [11]: significantly decreased | hyperactivity in the open field test [12]: attenuated the hyperactivity | learning deficit in the passive avoidance test [12]: attenuated the learning deficit | Antidepressant-like effects in rat FST [9]: Antidepressant-like effects | number of escape failures [13]: significantly reduced | immobility in the FST [14]: reversed the increased immobility

Cc1cc(-c2cccc(C3=Nc4cc(C)c(C(F)(F)F)cc4NC(=O)C3)c2)cc(C)n1 [RO4491533]
hypolocomotor effect of mGlu2/3 agonist (LY379268) [6]: reversed the hypolocomotor effect | immobility time in the FST [8]: dose-dependently reduced | activity in the tail suspension test [10]: active

CN1C(=O)CN=C(c2ccccc2)c2cc(Cl)ccc21 [diazepam]
freezing behavior [11]: significantly decreased

CNCCC(Oc1ccc(C(F)(F)F)cc1)c1ccccc1 (centres unmarked) [fluoxetine]
antidepressant effect in helpless mice ([10]; chronic (21 days) treatment): full antidepressant effect
